Earlier results, collected in patent US7094421B2, “Plaster containing 4-biphenylacetic acid” (Teikoku Seiyaki Co., Ltd., priority 2000, dated 2006).

Settings: solvent crotamiton

solubility of 4-biphenylacetic acid in crotamiton: about 7%
Compound: O=C(O)Cc1ccc(-c2ccccc2)cc1 [4-biphenylacetic acid]
